Compound `CCOC(=O)N(O)Cc1cccc(Nc2ccccc2C(=O)OC)c1Cl` has a melting point of 108 to 110 °C. Compound `Cc1c(Br)csc1C(=O)O` has a melting point of 188 to 189 °C. Work on `CCOC(=O)C[C@@H]1CCCC[C@H]1n1nc(-c2c(-c3ccccc3)nn3ccccc23)ccc1=O` (relative stereo) yielded a melting point of 151 to 152 °C. Compound `Cc1nc(-n2ccc(OCc3ccccc3)cc2=O)sc1C(=O)NCc1ccc(F)c(F)c1` has a melting point of 225 to 227 °C. `CCOC(=O)c1c(O)c2ccccc2c2nc3ccccc3nc12` gave a melting point of 126 to 127 °C. Compound `O=C1CCC(CSc2ccccc2)C(=O)N1CN1CCCCC1` (stereo not given) has a melting point of 63 to 66 °C. For `O=C(NC1CCCCCCC1)NS(=O)(=O)c1ccc(CCNC(=O)N2CCCCC2=O)cc1`, the melting point was 170 to 172 °C. `COc1cc(N)c(Cl)cc1C(=O)NC1CCN(CCNC(=O)C(O)c2ccccc2)CC1OC` (stereo not given) gave a melting point of 228 °C. For `COc1ccc(N2C(=O)Cc3ccccc32)cc1F`, the melting point was 133 to 136 °C. In the case of `COCCOc1ccc(C=O)cc1O`, the melting point is reported as 74 to 75 °C. Work on `COC(=O)c1cnccc1C(=O)c1ccc(-n2ccnc2)cc1` yielded a melting point of 135 to 137 °C. With `CCCCOCCC(C)CCCC(C)(C)c1cc(O)c(C(C)(C)CCCC(C)CCOCCCC)cc1O` (stereo not given) the melting point was 86 to 89 °C. For `O=C(O)Cc1cccc2c(-c3ccc(F)cc3)nccc12`, the melting point was 214 to 216 °C. With `O=C(c1ccc(F)cn1)N1CCC[C@H](c2noc(-c3ccc(F)cc3)n2)C1` the melting point was 93 to 95 °C. Work on `CCCN1C(=O)N2C[C@@H](Cc3ccccc3)N=C2c2c1nc(Br)n2Cc1ccccc1` yielded a melting point of 200 to 206 °C. Compound `Cc1ccc(C)n1Nc1nnc(N2CCOCC2)c2ccccc12` has a melting point of 255 to 260 °C. For `Cc1cccc(C)c1NC(=O)c1ccc(CN2C(=O)C3(COc4cc5c(cc43)CCO5)c3ccccc32)cc1` (stereo not given), the melting point was > 250 °C. `CCN1CC(CCN(C)C)Oc2ncccc2C1=S` (stereo not given) gave a melting point of 73 °C. In the case of `CC(C)=CCCC(C)=CCOc1ccc(C(=O)NCCc2ccncc2)cc1`, the melting point is reported as 85.2 to 86.1 °C. In the case of `CCOC(=O)C1=C(CO)NC(C)=C(C(=O)OCCOCc2ccccc2)C1c1ccccc1[N+](=O)[O-]` (stereo not given), the melting point is reported as 96 to 97 °C. Work on `COC(=O)c1ccc(CCNCC(O)c2ccccc2Cl)cc1` (stereo not given) yielded a melting point of 94 to 95 °C. With `CCOc1ccc(C(=O)Nc2ccc(C(C)(C)C#N)cc2)cc1OCC` the melting point was 138 to 140 °C. `CNC(=O)NC1(C)CCCc2ccccc21` (stereo not given) showed a melting point of 183 to 186 °C. With `CCOC(=O)C[C@H]1O[C@H](c2ccc(OCc3ccccc3)cc2OC)c2cc(Cl)ccc2N(CC(C)(C)C)C1=O` (relative stereo) the melting point was 130 to 131 °C. `CSc1ccc(Oc2ccc(C#N)cc2)cc1` gave a melting point of 65 to 66 °C. In the case of `O=C(O)c1ccc(F)nc1F`, the melting point is reported as 170 to 171 °C. Work on `Cc1noc(-c2ccccc2)c1/C=C/C(=O)O` yielded a melting point of 173 to 174 °C. Compound `OCCc1ccc2cc(Br)ccc2n1` has a melting point of 103 to 104 °C. Compound `Cc1nc(Cl)c2nnn(-c3ccc(C(C)C)cc3Br)c2n1` has a melting point of 72 to 74 °C. Compound `Cc1noc([C@@H](Cc2ccccc2)NC(=O)[C@@H](Cc2ccc3ccccc3c2)NC(=O)c2cccc(CNC(=O)OC(C)(C)C)c2)n1` has a melting point of 176 to 178 °C. With `ClC(Cl)(Cl)C1Oc2ccc(C=NNc3ccccc3)cc2C(C(Cl)(Cl)Cl)O1` (stereo not given) the melting point was 191 to 192 °C. Work on `COc1ccc(S(=O)(=O)Nc2cccnc2Nc2ccc(O)cc2)cc1` yielded a melting point of 178 to 179 °C. `Cc1ccc(C(=S)c2ccc(F)cc2)cc1` showed a melting point of 88 °C. In the case of `COc1ccc(C2CCCCC2)cc1-c1csc(NC(=O)C2CCN(C(=O)OC(C)(C)C)CC2)n1`, the melting point is reported as 193 °C. `Cc1ccc(C(=O)COc2cc(C)cc(C)c2C)cc1` showed a melting point of 94 to 95 °C. For `C(=Cc1ccccc1)COC(CCc1ccccc1)Cn1ccnc1` (stereo not given), the melting point was 116 to 119 °C. In the case of `O=[N+]([O-])c1cccc2c(Br)cc3nc(O)c(O)nc3c12`, the melting point is reported as > 300 °C. `CC(C)c1cccc(C(C)C)c1NC(=O)N(Cc1ccccc1)CC1(c2ccccc2)CCCC1` gave a melting point of 124 to 127 °C. Compound `NC(=O)N(O)Cc1ccc(Br)cc1` has a melting point of 157 to 159 °C. For `Cc1cc(O)ccc1NCCCCCCBr`, the melting point was 142 to 144 °C. Compound `O=C(O)CC(NS(=O)(=O)c1c(Cl)cc(Cl)cc1Cl)c1ccccc1` (stereo not given) has a melting point of 218 to 219 °C. For `Cc1cc(-c2ncc(OC3SCC(O)C(O)C3O)cc2F)ccn1` (stereo not given), the melting point was 143 °C. `Cc1nc(CSc2cccc(Cl)c2Cl)no1` showed a melting point of 66 to 68 °C. Compound `Cc1cc2ncc(C(=O)O)nc2cc1C` has a melting point of 214 to 216 °C. `Cc1oc(-c2ccccc2)nc1COc1ccc2c(c1)CCC(C=O)=C2` showed a melting point of 114 to 115 °C. Compound `Cc1c(C)c2c(c(C)c1NC(=O)c1ccc(Cl)cc1)C(c1ccc(C(C)C)cc1)C1(CCN(C)CC1)O2` (stereo not given) has a melting point of 293 to 295 °C. For `O=C1NC(=O)C(Cc2ccccc2)C(=O)N1`, the melting point was 207 to 209 °C. With `NNC(=O)Nc1ccc(-n2ncn(-c3ccc(OCC(F)(F)C(F)F)cc3)c2=O)cc1` the melting point was > 350 °C. With `COc1ccc(CCNC(=O)CCCCC(=O)NCCc2ccc(OC)c(OC)c2CCc2cccc(OC)c2)cc1` the melting point was 153 to 155 °C. In the case of `Cc1c(C(=O)O)c(CC(=O)O)n(C)c1C(=O)c1cccnc1`, the melting point is reported as 186 to 188 °C.

From a melting point compilation (Tetko et al.; mined from patent text by program, amines drawn as free bases though some values may be those of a salt)
